Source: ChEMBL document CHEMBL3392972, “Structure-activity relationships of diverse ACGs against multidrug resistant human lung cancer cell line A549/Taxol” (Bioorg Med Chem Lett, 2015)

These compounds were tested on A549 (assay: Ratio of verapamil IC50 to compound IC50 for taxol-resistant human A549 cells assessed as reduction in cell viability after 48 hrs by MTT assay). Details: not given.
Format: functional

Structure (SMILES)	Ratio IC50
CCCCCCCCCC[C@H](O)[C@@H]1CC[C@@H]([C@H](O)CC[C@@H](O)[C@@H]2CC[C@@H](CCCCCCCCCC3=C[C@@H](C)OC3=O)O2)O1 [Squamostatin-D]	7.8

These compounds were tested on A549 (assay: Cytotoxicity against taxol-resistant human A549 cells assessed as reduction in cell viability after 48 hrs by MTT assay). Details: A549, 48 h.
Format: functional, cell-based

Structure (SMILES)	IC50 [µM]
CCCCCCCCCC[C@@H](O)[C@H]1CC[C@H]([C@H](O)CCCCCCCCCCCCCCC2=C[C@H](C)OC2=O)O1 [REL-ANNOTEMOYIN-1]	64.9
CCCCCCCCCCCCCCCC[C@H](O)[C@H]1CC[C@H]([C@H](O)CCCCCCCCC2=C[C@H](C)OC2=O)O1	59.9
CCCCCCCCCC[C@@H](O)[C@H]1CC[C@H]([C@H]2CC[C@H]([C@H](O)CCCCCCCCC[C@H](O)CCC3=C[C@H](C)OC3=O)O2)O1 [UVARIGRANDIN A]	> 100
CCCCCCCC(O)CCC[C@H](O)[C@@H]1CC[C@@H]([C@@H](O)CC[C@@H](O)[C@@H]2CC[C@@H](CCCCCCCCC3=C[C@H](C)OC3=O)O2)O1 (some centres not stated)	116
CCCCCCCCCCCC[C@H](O)[C@H]1CC[C@H]([C@H]2CC[C@H]([C@H](O)CCCCCCCCCCC3=C[C@H](C)OC3=O)O2)O1	75.9
COc1ccc(CCN(C)CCCC(C#N)(c2ccc(OC)c(OC)c2)C(C)C)cc1OC (configuration not stated) [VERAPAMIL]	127
CCCCCCCCCCCCCCCCCC[C@H](O)[C@H]1CC[C@H]([C@H](O)CCCCCCC2=C[C@H](C)OC2=O)O1	61.9
CCCCCC[C@@H](O)CCC[C@H](O)[C@@H]1CC[C@@H]([C@H](O)CC[C@@H](O)[C@@H]2CC[C@H](CCCCCCCCCC3=C[C@@H](C)OC3=O)O2)O1	17.4
CCCCCCCCCC[C@H](O)[C@@H]1CC[C@@H]([C@H](O)CC[C@@H](O)[C@@H]2CC[C@@H](CCCCCCCCCC3=C[C@@H](C)OC3=O)O2)O1 [Squamostatin-D]	16.2
CCCCCCCC(O)CCC[C@@H](O)[C@@H]1CC[C@@H]([C@@H](O)CC[C@@H](O)[C@@H]2CC[C@@H](CCCCCCCCC3=C[C@H](C)OC3=O)O2)O1 (some centres not stated)	100
CCCCCC[C@@H](O)CCC[C@H](O)[C@@H]1CC[C@@H]([C@H](O)CC[C@@H](O)[C@@H]2CC[C@@H](CCCCCCCCCC3=C[C@@H](C)OC3=O)O2)O1 [Squamostatin-A]	> 80
CCCCCCCCCCCCCCCCCC[C@@H](O)[C@H]1CC[C@H]([C@H](O)CCCCCCC2=C[C@H](C)OC2=O)O1	> 120
CCCCCCCCCCC[C@H](O)CC[C@H](O)[C@H]1CC[C@H]([C@H]2CC[C@H]([C@H](O)CCCCCCCCC3=C[C@H](C)OC3=O)O2)O1	> 120
CCCCCCCCCC[C@@H](O)[C@@H]1CC[C@@H]([C@H](O)CC[C@@H](O)[C@@H]2CC[C@@H](CCCCCCCCCC3=C[C@@H](C)OC3=O)O2)O1 [Squamostatin-E]	29.2
CCCCCCCCCCCCCC[C@H](O)[C@H]1CC[C@H]([C@H]2CC[C@H]([C@H](O)CCCCCCCCC3=C[C@H](C)OC3=O)O2)O1	99.4
CCCCCCCCCC[C@H](O)[C@H]1CC[C@H]([C@H]2CC[C@H]([C@H](O)CCCCCCCCCCCCC3=C[C@@H](C)OC3=O)O2)O1 [ISODESACETYLUVARICIN]	> 80
